These results are taken from paper PMC9298070, “Lack of a Clinically Meaningful Drug Interaction Between the HIV‐1 Antiretroviral Agents Islatravir, Dolutegravir, and Tenofovir Disoproxil Fumarate” (Clinical Pharmacology in Drug Development, 2021).

Where a name gives a salt, the structure may show the parent alone. Read-outs that look alike come from different tables or passages of the source.

Data set [1] can be described thus: Plasma pharmacokinetics in phase 1, open-label, fixed-sequence, 2-period drug interaction trial (MK-8591-005). The note with it: for C24, GMR (90%CI): Islatravir + Dolutegravir + TDF / Dolutegravir + TDF; for half-life / concentration at 24 h / AUC / Cmax / Tmax: human, oral; for half-life / concentration at 24 h / Cmax, GM (95%CI) / tmax, median (min‐max) / Apparent terminal t1/2, geometric mean (geometric CV %) / AUC / Cmax / Tmax: plasma, N = 12; for Tmax: read-out: tmax, median (min‐max). The class given is in vivo, human. As for the experimental part: (§1) This was a phase 1, open‐label, fixed‐sequence, 2‐period trial in adults without HIV (protocol MK‐8591‐005). In period 1, participants received a single oral dose of 20 mg islatravir. In period 2, participants received multiple oral doses of 50 mg dolutegravir and 300 mg TDF once daily for 11 consecutive days (days 1‐11), with a single oral dose of 20 mg islatravir coadministered on day 8. There was a washout period of ≥7 days between islatravir dosing in period 1 and the first dose of dolutegravir and TDF in period 2 (Figure 1).
Blood samples for islatravir plasma analysis were collected before dosing and at selected time points over 96 hours following administration of islatravir on day 1 of period 1 and day 8 of period 2. In period 2, samples taken at 24, 48, and 72 hours for islatravir plasma analysis were collected before dose administration of dolutegravir and TDF. Blood samples for plasma analysis of dolutegravir and tenofovir were collected before dosing on days 1, 7, and 8 of period 2 and at selected time points over 24 hours after dosing on days 7 and 8 of period 2. The 24 hour samples for dolutegravir and tenofovir analysis for days 7 and 8 were collected before dosing of dolutegravir and TDF.
Plasma concentrations of islatravir, dolutegravir, and tenofovir were determined by inVentiv Health Clinique (Québec City, Québec, Canada) using validated high‐performance liquid chromatography coupled to tandem mass spectrometry methods.
Islatravir (m/z 294.000/154.000) was extracted using an automated protein precipitation method using [^13C,^15N3]‐ISL as internal standard (m/z 297.800/158.000). The extracted samples were assessed on a system equipped with a X Select HSS T3 C18, 50×2.1 mm, 2.5 μm column with water/acetonitrile with formic acid mobile phase. […] The lower limit of quantitation for islatravir was 0.10 ng/mL, with an analytical range of 0.10 to 100.00 ng/mL.
Dolutegravir (m/z 420.200/277.200) was extracted using an automated protein precipitation method using [C^13‐d5]‐dolutegravir as the internal standard (m/z 426.300/277.300). The extracted samples were assessed on a system equipped with an ACE 3 C18, 30 × 4.6 mm, 3 μm column (Avantor, Radnor, Pennsylvania) with water/methanol with ammonium formate and formic acid mobile phase. […] The lower limit of quantitation for dolutegravir was 10.00 ng/mL, with an analytical range of 10.00 to 10 000.00 ng/mL.
Tenofovir (m/z 288.200/176.200) was extracted using an automated solid phase extraction using tenofovir‐d6 as internal standard (m/z 294.100/182.300). The extracted samples were assessed on a system equipped with an Atlantis dC18, 75 × 4.6 mm, 3 μm column (Waters Corp., Milford, Massachusetts) with water/acetonitrile with ammonium formate and formic acid mobile phase. […] The lower limit of quantitation for tenofovir was 0.50 ng/mL, with an analytical range of 0.50 to 500.00 ng/mL.
Plasma islatravir, dolutegravir, and tenofovir pharmacokinetics were summarized descriptively. Pharmacokinetic parameter values were calculated using the software Phoenix WinNonlin version 6.3 (Certara, Princeton, New Jersey). Cmax, C24, and tmax values were obtained directly from the observed plasma concentration–time data.

Data set [2] is described as follows: Safety and tolerability in the phase 1 trial (adverse event reports, laboratory tests, ECG, vital signs). The class given is in vivo, human. The note with it: after administration of dolutegravir and TDF; of 12 participants. On the procedure:
as §1
Safety and tolerability were monitored by repeated clinical and laboratory evaluations for the duration of the trial. Safety evaluations included adverse event (AE) reports, laboratory tests, 12‐lead electrocardiograms, and vital signs.
Incidence of adverse experiences was descriptively summarized.

On the set-up of data set [3]: method as in PMID 19884365. As to conditions: once-daily multiple dosing; cited from earlier work.
The conditions of data set [4]: in vivo; cited from earlier work.
The mark [5] stands for this setting: steady state, 50 mg dolutegravir + 300 mg TDF once daily days 1-7, period 2, without islatravir, read-out: Apparent terminal t1/2, geometric mean (geometric CV %) (converted).
The mark [6] stands for this setting: steady state, 50 mg dolutegravir + 300 mg TDF once daily days 1-7, period 2, without islatravir, read-out: Apparent terminal t1/2, AM (SD) (converted).
Where [7] appears, read: steady state, 50 mg dolutegravir + 300 mg TDF once daily days 1-7, period 2, without islatravir, read-out: C24, AM (SD).
[8] abbreviates: steady state, 50 mg dolutegravir + 300 mg TDF once daily days 1-7, period 2, without islatravir, read-out: C24, GM (95%CI).
Setting [9] is: 50 mg dolutegravir + 300 mg TDF once daily with single 20 mg islatravir on day 8, period 2, read-out: C24, AM (SD).
The mark [10] stands for this setting: 50 mg dolutegravir + 300 mg TDF once daily with single 20 mg islatravir on day 8, period 2, read-out: C24, GM (95%CI).
Where [11] appears, read: steady state, 50 mg dolutegravir + 300 mg TDF once daily days 1-7, period 2, without islatravir.
[12] abbreviates: 50 mg dolutegravir + 300 mg TDF once daily with single 20 mg islatravir on day 8, period 2.

As to `C[C@@H]1CCO[C@H]2Cn3cc(C(=O)NCc4ccc(F)cc4F)c(=O)c(O)c3C(=O)N12` [Dolutegravir], the “C24, GMR (90%CI)” value in data set [1] is on record as 1.10 (1.03‐1.17). Further, the half-life was 15.2 h in data set [1] (setting [5]); 15.3 h in data set [1] (setting [6]); 15.7 h in data set [1] (50 mg dolutegravir + 300 mg TDF once daily with single 20 mg islatravir on day 8, period 2, read-out: Apparent terminal t1/2, AM (SD) (converted)). The concentration at 24 h was determined as 1220 ng/mL in data set [1] (setting [7]), 1120 ng/mL in data set [1] (setting [8]), 1310 ng/mL in data set [1] (setting [9]) and 1240 ng/mL in data set [1] (setting [10]). Moreover, the entries for the “Cmax, GM (95%CI)” value in data set [1] (setting [11]) and in data set [1] (setting [12]) were 3500 (2770‐4430) ng/mL and 3570 (2950‐4330) ng/mL, respectively. The entries for the “tmax, median (min‐max)” value in data set [1] (setting [11]) and in data set [1] (setting [12]) were 2.50 (0.50‐4.13) h and 3.00 (1.00‐6.03) h, respectively. The “Apparent terminal t1/2, geometric mean (geometric CV %)” value in data set [1] (setting [12]) is reported as 15.5 (16.2) h. Further, in data set [2], the “participants reporting AEs considered drug-related” value came to 3 participants. For the same molecule, in data set [3], the “time to steady‐state concentrations” value was not above 5 days.

Regarding `CC(C)OC(=O)OCOP(=O)(CO[C@H](C)Cn1cnc2c(N)ncnc21)OCOC(=O)OC(C)C` [TDF, tenofovir disoproxil fumarate], in data set [2], the “participants reporting AEs considered drug-related” value turned out to be 3 participants.

Usually Cmax stands for the maximum level reached in the sampled fluid or tissue. Broadly, the Tmax is the time from dosing to the highest level. In the case of `C[C@H](Cn1cnc2c(N)ncnc21)OCP(=O)(O)O` [Tenofovir], the “C24, GMR (90%CI)” value in data set [1] is reported as 1.05 (0.97‐1.14). Further, the figures for the half-life in data set [1] (setting [5]) and in data set [1] (setting [6]) were 13.7 h and 13.8 h, respectively. The AUC in data set [1] (steady state, 50 mg dolutegravir + 300 mg TDF once daily days 1-7, period 2, without islatravir, read-out: AUC0‐24, AM (SD)) was 2250 ng·h/mL; in data set [1] (steady state, 50 mg dolutegravir + 300 mg TDF once daily days 1-7, period 2, without islatravir, read-out: AUC0‐24, GM (95%CI)), 2220 ng·h/mL; in data set [1] (50 mg dolutegravir + 300 mg TDF once daily with single 20 mg islatravir on day 8, period 2, read-out: AUC0‐24, AM (SD)), 2350 ng·h/mL; in data set [1] (50 mg dolutegravir + 300 mg TDF once daily with single 20 mg islatravir on day 8, period 2, read-out: AUC0‐24, GM (95%CI)) it was 2330 ng·h/mL. Also, the concentration at 24 h in data set [1] (setting [7]) amounted to 43.6 ng/mL; in data set [1] (setting [8]), 42.6 ng/mL; in data set [1] (setting [9]) it was 45.3 ng/mL; in data set [1] (setting [10]) it was 44.8 ng/mL. Also, the maximum concentration (Cmax) is 346 ng/mL in data set [1] (steady state, 50 mg dolutegravir + 300 mg TDF once daily days 1-7, period 2, without islatravir, read-out: Cmax, AM (SD)); 339 ng/mL in data set [1] (steady state, 50 mg dolutegravir + 300 mg TDF once daily days 1-7, period 2, without islatravir, read-out: Cmax, GM (95%CI)); 343 ng/mL in data set [1] (50 mg dolutegravir + 300 mg TDF once daily with single 20 mg islatravir on day 8, period 2, read-out: Cmax, AM (SD)); 333 ng/mL in data set [1] (50 mg dolutegravir + 300 mg TDF once daily with single 20 mg islatravir on day 8, period 2, read-out: Cmax, GM (95%CI)). Also, the values for the Tmax in data set [1] (setting [11]) and in data set [1] (setting [12]) were 1 h and 1.01 h, respectively. In addition, the “Apparent terminal t1/2, geometric mean (geometric CV %)” value in data set [1] (setting [12]) is 13.2 (11.0) h. Besides, in data set [4], the “time to steady‐state concentrations” value is reported as not above 7 days.
